# Test results published in patent US10266535B2, “Inhibitor of FLT3 kinase and use thereof” (HEFEI INSTITUTES OF PHYSICAL SCIENCE, CHINESE ACADEMY OF …, priority 2015, dated 2019).
# Where a name gives a salt, the structure may show the parent alone. Read-outs that look alike come from different tables or passages of the source.
# Experiments:
# [1] = system: TEL-BaF3-FLT3/ITD (stably expressing FLT3/ITD mutant activated kinase); test: Cell proliferation, Cell Titer-Glo, TEL-BaF3-FLT3/ITD; format: cell-based, mouse; conditions: incubated for 72 hours, read-out: TEL-BaF3-FLT3/ITD IC50
# Protocol: (§1) The above cell lines were constructed by our laboratory.
# (§2) The number of viable cells was determined by quantification of ATP in living cells using the Cell Titer-Glo® (Promega, USA) chemiluminescence cell viability assay kit.
# [2] = system: U937 (expressing wild-type FLT3 gene); test: Cell proliferation, Cell Titer-Glo, U937; format: cell-based, human; conditions: incubated for 72 hours, read-out: U937 IC50
# Protocol: as §1, §2
# BTK protein kinase = BTK protein kinase (Homo sapiens (Human), UniProt Q06187); test: In vitro inhibition activity (enzymatic activity), ADP-Glo, BTK; format: biochemical; conditions: ATP 10 μM
# [3] = system: MV4-11 (expressing FLT3/ITD mutant gene); test: Cell proliferation, Cell Titer-Glo, MV4-11; format: cell-based; conditions: Homo sapiens, MV4-11; incubated for 72 hours; read-out: MV4-11 IC50
# Protocol: as §1, §2
# [4] = system: MOLM-13 (expressing FLT3/ITD mutant gene and wild-type FLT3 gene); test: Cell proliferation, Cell Titer-Glo, MOLM-13; format: cell-based; conditions: Homo sapiens, MOLM-13; incubated for 72 hours; read-out: MOLM-13 IC50
# Protocol: as §1, §2
# [5] = system: MOLM-14 (expressing FLT3/ITD mutant gene and wild-type FLT3 gene); test: Cell proliferation, Cell Titer-Glo, MOLM-14; format: cell-based; conditions: Homo sapiens, MOLM-14; incubated for 72 hours; read-out: MOLM-14 IC50
# Protocol: as §1, §2
# [6] = system: TEL-BaF3-FLT3-D835Y (stably expressing FLT3 D835Y mutant activated kinase); test: Cell proliferation, Cell Titer-Glo, TEL-BaF3-FLT3-D835Y; format: cell-based; conditions: Mus musculus; incubated for 72 hours; read-out: TEL-BaF3-FLT3-D835Y IC50
# Protocol: as §1, §2
# [7] = system: TEL-BaF3-BMX (stably expressing BMX kinase); test: Cell proliferation, Cell Titer-Glo, TEL-BaF3-BMX; format: cell-based; conditions: Mus musculus; incubated for 72 hours
# Protocol: as §1, §2
# [8] = system: TEL-cKIT-BaF3 (stably expressing cKIT kinase); test: Cell proliferation, Cell Titer-Glo, TEL-cKIT-BaF3; format: cell-based; conditions: Mus musculus; incubated for 72 hours
# Protocol: as §1, §2
# [9] = system: TPR-MET-BaF3 (stably expressing MET kinase); test: Cell proliferation, Cell Titer-Glo, TPR-MET-BaF3; format: cell-based; conditions: Mus musculus; incubated for 72 hours
# Protocol: as §1, §2
# [10] = system: TEL-BaF3-BLK (stably expressing BLK kinase); test: Cell proliferation, Cell Titer-Glo, TEL-BaF3-BLK; format: cell-based; conditions: Mus musculus; incubated for 72 hours
# Protocol: as §1, §2
# [11] = system: TEL-JAK1-BaF3 (stably expressing JAK1 kinase); test: Cell proliferation, Cell Titer-Glo, TEL-JAK1-BaF3; format: cell-based; conditions: Mus musculus; incubated for 72 hours
# Protocol: as §1, §2
# pro-B cell BaF3 = test: Cell proliferation, Cell Titer-Glo, BaF3; format: cell-based; conditions: Mus musculus, incubated for 72 hours
# Protocol: as §1, §2
# [12] = system: OCI-AML-3 (expressing FLT3 A680V mutant gene); test: Cell proliferation, Cell Titer-Glo, OCI-AML3; format: cell-based; conditions: Homo sapiens, incubated for 72 hours
# Protocol: as §1, §2
# BTK protein kinase, sequence (Q06187 whole entry): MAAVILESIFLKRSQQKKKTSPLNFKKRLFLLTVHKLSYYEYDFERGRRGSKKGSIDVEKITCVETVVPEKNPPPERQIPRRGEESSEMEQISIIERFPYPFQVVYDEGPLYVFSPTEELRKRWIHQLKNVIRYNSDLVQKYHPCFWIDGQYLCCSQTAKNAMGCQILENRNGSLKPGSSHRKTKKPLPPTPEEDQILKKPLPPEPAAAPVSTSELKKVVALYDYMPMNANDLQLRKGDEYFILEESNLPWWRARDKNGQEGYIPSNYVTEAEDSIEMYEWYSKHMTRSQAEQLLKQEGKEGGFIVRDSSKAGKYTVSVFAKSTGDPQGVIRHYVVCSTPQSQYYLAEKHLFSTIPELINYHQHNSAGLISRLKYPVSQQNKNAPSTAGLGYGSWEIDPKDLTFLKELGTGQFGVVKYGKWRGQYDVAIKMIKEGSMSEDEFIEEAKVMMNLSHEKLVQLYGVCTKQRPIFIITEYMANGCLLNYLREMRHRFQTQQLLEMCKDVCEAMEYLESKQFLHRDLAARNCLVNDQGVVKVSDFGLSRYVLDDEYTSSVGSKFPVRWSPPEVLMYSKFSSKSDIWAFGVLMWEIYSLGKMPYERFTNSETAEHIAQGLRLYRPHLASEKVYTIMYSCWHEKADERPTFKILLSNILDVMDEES
SMILES,"IC50 ([1]; Mus musculus, 72 h) [nM]","IC50 ([2]; Homo sapiens, U-937, 72 h) [nM]",IC50 (BTK protein kinase) [nM],IC50 [3] [nM],IC50 [4] [nM],IC50 [5] [nM],IC50 [6] [nM],IC50 [7] [nM],IC50 [8] [nM],IC50 [9] [nM],IC50 [10] [nM],IC50 [11] [nM],IC50 (pro-B cell BaF3) [nM],IC50 [12] [nM],IC50 [1] [nM],IC50 [2] [nM]
"Nc1ncnc2c1c(-c1ccc(Oc3ccccc3)cc1)nn2[C@@H]1CCCN(C(=O)[C@@H](N)Cc2c[nH]cn2)C1 [Compound 6, (S)-2-amino-1-((R)-3-(4-amino-(4-phenoxyphenyl)-1H-pyrazolo[3,4-d]pyrimidin-1-yl)piperidin-1-yl)-3-(1H-imidazol-4-yl)propan-1-one]",1100,> 10000,128,–,–,–,–,–,–,–,–,–,–,–,–,–
"Nc1ncnc2c1c(-c1ccc(Oc3ccccc3)cc1)nn2[C@@H]1CCCN(C(=O)[C@@H](N)Cc2c[nH]c3ccccc23)C1 [Compound 9, (S)-2-amino-1-((R)-3-(4-amino-(4-phenoxyphenyl)-1H-pyrazolo[3,4-d]pyrimidin-1-yl)piperidin-1-yl)-3-(1H-indol-3-yl)propan-1-one]",–,> 10000,49,–,–,–,–,–,–,–,–,–,–,–,–,–
"CC(C)C[C@H](N)C(=O)N1CCC[C@@H](n2nc(-c3ccc(Oc4ccccc4)cc3)c3c(N)ncnc32)C1 [Compound 12, (S)-2-amino-1-((R)-3-(4-amino-(4-phenoxyphenyl)-1H-pyrazolo[3,4-d]pyrimidin-1-yl)piperidin-1-yl)-4-methylpentan-1-one]",45,1600,349,64,46,77,48,600,1000,1500,960,520,–,–,–,–
"CC(C)C[C@@H](N)C(=O)N1CC[C@@H](n2nc(-c3ccc(Oc4ccccc4)cc3)c3c(N)ncnc32)C1 [Compound 28, (R)-2-amino-1-((R)-3-(4-amino-(4-phenoxyphenyl)-1H-pyrazolo[3,4-d]pyrimidin-1-yl)pyrrolidin-1-yl)-4-methylpentan-1-one]",41,–,–,120,1900,–,–,390,5300,–,83,910,2150,–,–,–
"CCCS(=O)(=O)N1CCC[C@@H](n2nc(-c3ccc(Oc4ccccc4)cc3)c3c(N)ncnc32)C1 [Compound 40, (R)-3-(4-phenoxyphenyl)-1-(1-(propylsulfonyl)piperidin-3-yl)-1H-pyrazolo[3,4-d]pyrimidin-4-amine]",160,4450,–,760,–,–,–,–,–,–,–,–,–,6610,–,–
"CCS(=O)(=O)N1CCC[C@@H](n2nc(-c3ccc(Oc4ccccc4)cc3)c3c(N)ncnc32)C1 [Compound 41, (R)-3-(4-phenoxyphenyl)-1-(1-(ethylsulfonyl)piperidin-3-yl)-1H-pyrazolo[3,4-d]pyrimidin-4-amine]",140,5840,–,570,–,–,–,–,–,–,–,–,–,4850,–,–
Nc1ncnc2c1c(-c1ccc(Oc3ccccc3)cc1)nn2[C@@H]1CCCN(C(=O)C(Cl)(Cl)Cl)C1 [Compound 42],390,> 10000,–,1900,–,–,–,–,–,–,–,–,–,> 10000,–,–
"CC(O)[C@@H](N)C(=O)N1CCC[C@@H](n2nc(-c3ccc(Oc4ccccc4)cc3)c3c(N)ncnc32)C1 (stereo partly drawn) [Compound 44, (R)-2-amino-1-((R)-3-(4-amino-(4-phenoxyphenyl)-1H-pyrazolo[3,4-d]pyrimidin-1-yl)piperidin-1-yl)-3-hydroxybutanone]",22,> 10000,53,64,72,59,–,119,–,2760,1000,–,3900,3760,–,–
NCCC(=O)N1CCC[C@@H](n2nc(-c3ccc(Oc4ccccc4)cc3)c3c(N)ncnc32)C1 [Compound 46],390,5680,–,750,–,–,–,–,–,–,–,–,–,8610,–,–
C[C@@H](N)C(=O)N1CCC[C@@H](n2nc(-c3ccc(Oc4ccccc4)cc3)c3c(N)ncnc32)C1 [Compound 47],–,–,27,54,34,48,–,56,–,2460,680,–,3800,2700,22,> 10000
Nc1ncnc2c1c(-c1ccc(Oc3ccccc3)cc1)nn2[C@@H]1CCCN(C(=O)[C@H](N)CO)C1 [Compound 48],46,> 10000,28,61,52,79,–,–,–,3520,1100,–,6500,4360,–,–
CC(C)(C)CC(=O)N1CCC[C@@H](n2nc(-c3ccc(Oc4ccccc4)cc3)c3c(N)ncnc32)C1 [Compound 49],460,> 10000,–,2400,–,–,–,–,–,–,–,–,–,> 10000,–,–
CCC(C)(C)C(=O)N1CCC[C@@H](n2nc(-c3ccc(Oc4ccccc4)cc3)c3c(N)ncnc32)C1 [Compound 50],260,> 10000,–,2400,–,–,–,–,–,–,–,–,–,> 10000,–,–
Nc1ncnc2c1c(-c1ccc(Oc3ccccc3)cc1)nn2[C@@H]1CCCN(C(=O)CC(F)(F)F)C1 [Compound 51],150,> 10000,–,610,–,–,–,–,–,–,–,–,–,> 10000,–,–
Nc1ncnc2c1c(-c1ccc(Oc3ccccc3)cc1)nn2[C@@H]1CCCN(C(=O)CC2CC2)C1 [Compound 52],82,> 10000,–,410,–,–,–,–,–,–,–,–,–,7890,–,–
CC(C)CC(=O)N1CCC[C@@H](n2nc(-c3ccc(Oc4ccccc4)cc3)c3c(N)ncnc32)C1 [Compound 53],770,> 10000,–,3400,–,–,–,–,–,–,–,–,–,> 10000,–,–
CCCC(=O)N1CCC[C@@H](n2nc(-c3ccc(Oc4ccccc4)cc3)c3c(N)ncnc32)C1 [Compound 54],450,> 10000,–,1200,–,–,–,–,–,–,–,–,–,> 10000,–,–
CC(C)(C)C(=O)N1CCC[C@@H](n2nc(-c3ccc(Oc4ccccc4)cc3)c3c(N)ncnc32)C1 [Compound 55],1800,> 10000,–,> 10000,–,–,–,–,–,–,–,–,–,> 10000,–,–
NC(=O)CC[C@@H](N)C(=O)N1CCC[C@@H](n2nc(-c3ccc(Oc4ccccc4)cc3)c3c(N)ncnc32)C1 [Compound 57],120,–,–,60,760,–,–,2300,3400,–,540,4710,8430,–,–,–
"COC(=O)N1CCC(C(=O)N2CCC[C@@H](n3nc(-c4ccc(Oc5ccccc5)cc4)c4c(N)ncnc43)C2)CC1 [Compound 60, (R)-methyl 4-(3-(4-amino-(4-phenoxyphenyl)-1H-pyrazolo[3,4-d]pyrimidin-1-yl)piperidine-1-carbonyl)piperidin-1-carboxylate]",300,–,–,520,1360,–,–,–,–,–,–,770,4370,–,–,–
NCC(=O)N1CC[C@@H](n2nc(-c3ccc(Oc4ccccc4)cc3)c3c(N)ncnc32)C1 [Compound 64],80,–,–,175,480,–,–,90,2500,–,9.8,1300,7590,–,–,–
CN(C)CC(=O)N1CC[C@@H](n2nc(-c3ccc(Oc4ccccc4)cc3)c3c(N)ncnc32)C1 [Compound 65],41,–,–,83,230,–,–,1200,3500,–,360,890,8420,–,–,–
"CN[C@H](CC(C)C)C(=O)NC1CCC(n2nc(-c3ccc(Oc4ccccc4)cc3)c3c(N)ncnc32)CC1 (stereo partly drawn) [Compound 92, (R)-N-(4-(4-amino-(4-phenoxyphenyl)-1H-pyrazolo[3,4-d]pyrimidin-1-yl)cyclohexyl)-4-methyl-2-(methylamino)pentanamide hydrochloride]",< 0.3,–,–,< 0.3,–,< 0.3,< 0.3,–,–,–,–,–,1900,–,–,–
